Data published in patent US8685974B2 (Bayer CropScience AG, priority 2009, dated 2014).
Like-named read-outs stand apart in the source and are kept apart here. Marks after values point to notes of the source that are not given here.

**Q.** For `CC(C)n1cc(-c2ccnc(N=C(c3ccccc3)c3ccccc3)c2)c(-c2ccc(Cl)s2)n1` [4-[(3/5)-(5-Chloro-2-thienyl)-1-isopropyl-1H-pyrazol-4-yl]-N-(diphenylmethylene)pyridin-2-amine], which “logP (pH2.7)” value (pH 2.7) is on record?
**A.** Its value is 4.46.

**Q.** And the “logP (pH2.7), minor isomer” value (pH 2.7)?
**A.** The value was 3.96.

**Q.** With `CC(C)Nc1nccc(-c2cn(Cc3ccccc3F)nc2-c2ccc(Cl)s2)n1` [Example 121] as the compound, how does the log p (pH 2.7) read?
**A.** Its log p is 3.39^[b].

**Q.** What about the “logP value of the minor isomer (in parenthesis in column Isomer ratio [d])” value (pH 2.7) of the same compound?
**A.** Its value is “(3.02”.

**Q.** With `CC(C)n1cc(-c2ccnc(NCc3ccccc3)n2)c(-c2ccc(Cl)s2)n1` [Example 198] as the compound, how does the log p (pH 2.3) read?
**A.** The log p was 3.81^[a].

**Q.** For `Clc1ccc(-c2n[nH]c(C3CC3)c2-c2ccncc2)s1` [Example 67], which log p (pH 2.7) is on record?
**A.** The log p was 1.36^[b].

**Q.** With `CC(C)CCn1cc(-c2ccncn2)c(-c2ccc(Cl)s2)n1` [Example 27] as the compound, how does the log p (pH 2.7) read?
**A.** The log p was 3.8^[b].

**Q.** With `CC(C)Cn1cc(-c2cc[n+]([O-])c(Cl)c2)c(-c2ccc(Cl)s2)n1` [2-Chloro-4-[1-isobutyl-3-(5-chloro-2-thienyl)-1H-pyrazol-4-yl]pyridine-N-oxyde] as the compound, how does the “logP (pH2.7)” value (pH 2.7) read?
**A.** The value was 2.82.

**Q.** With `CC(C)n1cc(-c2ccnc(Cl)c2)c(-c2ccc(Cl)s2)n1` [Example 315] as the compound, how does the log p (pH 2.7) read?
**A.** Its log p is 4.44^[b].

**Q.** With `CC(C)Cn1cc(-c2ccncc2)c(-c2cc(Cl)cs2)n1` [Example 152] as the compound, how does the log p (pH 2.7) read?
**A.** The log p was 1.87^[b].

**Q.** Which log p (pH 2.7) does the source give for `CC(C)=CCn1cc(-c2ccncc2)c(-c2cc3ccsc3s2)n1` [Example 331] here?
**A.** Its log p is 1.69^[b].

**Q.** For `CCC(C)n1cc(-c2ccncc2)c(-c2sccc2Cl)n1` (stereo not shown) [Example 132], which log p (pH 2.7) is on record?
**A.** The log p was 1.56^[b].

**Q.** What about the “logP value of the minor isomer” value (pH 2.7) of the same compound?
**A.** The value was “(1.67)”.

**Q.** With `CC(C)Nc1nccc(-c2cn(CCC#N)nc2-c2ccc(Cl)s2)n1` [Example 140] as the compound, how does the log p (pH 2.7) read?
**A.** Its log p is 2.15^[b].

**Q.** Which results are given for `CC(C)=CCn1cc(-c2ccncc2)c(-c2ccc(Br)s2)n1` [Example 355]?
**A.** log p (pH 2.7): 2.35^[b]; logP value of the minor isomer (between parenthesis, Isomer ratio column) (pH 2.7): (2.11)

**Q.** For `CC(=O)Nc1cc(-c2cn(C)nc2-c2ccc(NC(C)=O)s2)ccn1` [Example 216], which log p (pH 2.7) is on record?
**A.** Its log p is 0.76^[b].

**Q.** Which log p (pH 2.3) does the source give for `COCC(C)Nc1nccc(-c2cn(C(C)C)nc2-c2ccc(Cl)s2)n1` (stereo not shown) [Example 178] here?
**A.** Its log p is 2.82^[a].

**Q.** With `CC(=O)Nc1ccc(-c2nn(C)cc2-c2ccnc(N(C(C)=O)C(C)=O)c2)s1` [Example 290] as the compound, how does the log p (pH 2.7) read?
**A.** Its log p is 1.39^[b].

**Q.** For `CC#Cc1c(-c2ccncc2)c(-c2ccc(Cl)s2)nn1C(C)C` [4-[(3/5)-(5-Chloro-2-thienyl)-1-isopropyl-5-(prop-1-yn-1-yl)-1H-pyrazol-4-yl]pyridine], which “logP (pH2.7)” value (pH 2.7) is on record?
**A.** Its value is 2.78.

**Q.** And the “logP (pH2.7), minor isomer” value (pH 2.7)?
**A.** The value was 2.21.

**Q.** With `Clc1ccc(-c2nn(-c3ccccc3)cc2-c2ccncc2)s1` [Example 22] as the compound, how does the log p (pH 2.7) read?
**A.** The log p was 2.63^[b].

**Q.** With `CN(C)c1nccc(-c2c[nH]nc2-c2ccc(Cl)s2)n1` [Example 79] as the compound, how does the log p (pH 2.3) read?
**A.** The log p was 1.69^[a].

**Q.** For `CCC(C)n1ncc(-c2ccncn2)c1-c1ccc(Cl)s1` (stereo not shown) [Example 31], which log p (pH 2.7) is on record?
**A.** The log p was 3.34^[b].

**Q.** For `CC(C)n1cc(-c2ccncc2)c(-c2cc(Cl)cs2)n1` [Example 114], which log p (pH 2.7) is on record?
**A.** Its log p is 1.6^[b].

**Q.** And the “logP value of the minor isomer (in parenthesis in column Isomer ratio [d])” value (pH 2.7)?
**A.** The value was “(1.74)”.

**Q.** With `C=CCn1cc(-c2ccncc2)c(-c2ccc(F)s2)n1` [Example 382] as the compound, how does the log p (pH 2.7) read?
**A.** Its log p is 1.54^[b].

**Q.** What about the “logP value of the minor isomer” value (pH 2.7) of the same compound?
**A.** The value was “(1.48)”.

**Q.** With `CC(C)n1cc(-c2ccnc(N=C(c3ccccc3)c3ccccc3)c2)c(-c2ccc(Cl)s2)n1` [Example 310] as the compound, how does the log p (pH 2.7) read?
**A.** Its log p is 4.46^[b].

**Q.** With `Cn1cc(-c2ccnc(NC(=O)c3cccs3)c2)c(-c2ccc(Cl)s2)n1` [Example 273] as the compound, how does the log p (pH 2.7) read?
**A.** Its log p is 3.04^[b].

**Q.** For `Clc1ccc(-c2nn(Cc3ccccc3)cc2-c2ccncc2)s1` [Example 43], which log p (pH 2.3) is on record?
**A.** Its log p is 2.35^[a].

**Q.** Which log p (pH 2.7) does the source give for `C#CCNc1cc(-c2cn(CC(C)C)nc2-c2ccc(Cl)s2)ccn1` [Example 112] here?
**A.** Its log p is 2.30^[b].

**Q.** For `CC(C)Cn1cc(-c2ccnc(Cl)c2)c(-c2ccc(Cl)s2)n1` [Example 70], which log p (pH 2.3) is on record?
**A.** Its log p is 4.85^[a].

**Q.** For `CC(C)NC(=O)n1cc(-c2ccncc2)c(-c2ccc(Cl)s2)n1` [Example 89], which log p (pH 2.7) is on record?
**A.** The log p was 2.26^[b].

**Q.** For `CC(C)Cn1ncc(-c2cc[n+]([O-])c(N)c2)c1-c1ccc(Cl)s1` [2-Amino-4-[1-isobutyl-5-(5-chloro-2-thienyl)-1H-pyrazol-4-yl]pyridine N oxide], which “logP (pH2.7)” value (pH 2.7) is on record?
**A.** The value was 2.21.

**Q.** For `C#CCNc1cc(-c2cnn(CC(C)C)c2-c2ccc(Cl)s2)cc[n+]1[O-]` [Example 83], which log p (pH 2.3) is on record?
**A.** Its log p is 2.7^[a].

**Q.** Which log p (pH 2.7) does the source give for `COCCn1cc(-c2ccncc2)c(-c2ccc(Cl)s2)n1` [Example 49] here?
**A.** The log p was 1.42^[b].

**Q.** What about the “logP value of the minor isomer (in parenthesis in column Isomer ratio [d])” value (pH 2.7) of the same compound?
**A.** The value was “(1.29)”.

**Q.** Which log p (pH 2.7) does the source give for `COc1ccc(Cn2nc(-c3ccc(Cl)s3)c(-c3ccncc3)c2[Si](C)(C)C)cc1` [Example 102] here?
**A.** The log p was 4.84^[b].

**Q.** With `CC(C)n1cc(-c2ccncc2)c(-c2sccc2Cl)n1` [Example 158] as the compound, how does the log p (pH 2.7) read?
**A.** Its log p is 1.38^[b].

**Q.** With `Clc1ccc(-c2n[nH]cc2-c2ccnc(NCc3ccccc3)n2)s1` [Example 90] as the compound, how does the log p (pH 2.3) read?
**A.** The log p was 2.37^[a].

**Q.** With `CC(C)n1ncc(-c2ccncc2)c1-c1ccc(Cl)s1` [Example 39] as the compound, how does the log p (pH 2.3) read?
**A.** The log p was 1.63^[a];.

**Q.** What about the log p (pH 2.7) of the same compound?
**A.** The log p was 1.7^[b].

**Q.** With `CC(C)Cn1ncc(-c2cc[n+]([O-])c(NCc3ccccc3)c2)c1-c1ccc(Cl)s1` [2-Benzylamino-4-[1-isobutyl-5-(5-chloro-2-thienyl)-1H-pyrazol-4-yl]pyridine N oxide] as the compound, how does the “logP (pH2.7)” value (pH 2.7) read?
**A.** The value was 3.48.

**Q.** Which log p (pH 2.7) does the source give for `CC(C)=CCn1cc(-c2ccncc2)c(-c2sccc2Cl)n1` [Example 133] here?
**A.** The log p was 1.74^[b].

**Q.** With `C=CC(C)n1cc(-c2ccncc2)c(-c2sccc2Cl)n1` (stereo not shown) [Example 161] as the compound, how does the log p (pH 2.7) read?
**A.** Its log p is 1.51^[b].

**Q.** With `Cc1ccc(-c2[nH]ncc2-c2ccncc2)s1` [Example 35] as the compound, how does the log p (pH 2.7) read?
**A.** Its log p is 0.77^[b].

**Q.** Which “logP (pH2.7)” value (pH 2.7) does the source give for `CC(C)n1cc(-c2ccncc2)c(-c2cccs2)n1` [4-[1-Isopropyl-(3/5)-(2-thienyl)-1H-pyrazol-4-yl]pyridine] here?
**A.** The value was 1.27.

**Q.** What about the “logP (pH2.7), minor isomer” value (pH 2.7) of the same compound?
**A.** Its value is 1.33.

**Q.** Which results are given for `CC(C)n1cc(-c2ccncc2)c(-c2ccc(C(F)(F)F)s2)n1` [4-[1-isopropyl-(3/5)-(5-trifluoromethyl-2-thienyl)-1H-pyrazol-4-yl]pyridine]?
**A.** logP (pH2.7) (pH 2.7): 2.20; logP (pH2.7), minor isomer (pH 2.7): 2.08

**Q.** For `CC(C)Nc1nccc(-c2cn(CCCl)nc2-c2ccc(Cl)s2)n1` [Example 119], which log p (pH 2.7) is on record?
**A.** Its log p is 2.63^[b].

**Q.** What about the “logP value of the minor isomer (in parenthesis in column Isomer ratio [d])” value (pH 2.7) of the same compound?
**A.** Its value is “(2.35)”.

**Q.** With `CCC(C)n1cc(-c2ccnc(C#CC3CC3)c2)c(-c2ccc(Cl)s2)n1` (stereo not shown) [Example 111] as the compound, how does the log p (pH 2.7) read?
**A.** The log p was 4.56^[b].

**Q.** For `CC(n1ncc(-c2ccncc2)c1-c1ccc(Cl)s1)C(C)(C)C` (stereo not shown) [Example 19], which log p (pH 2.7) is on record?
**A.** The log p was 2.47^[b].

**Q.** With `CC(C)n1ncc(-c2ccncn2)c1-c1ccc(Cl)s1` [Example 30] as the compound, how does the log p (pH 2.7) read?
**A.** Its log p is 2.94^[b].

**Q.** With `CC(C)n1cc(-c2ccnc(S(C)(=O)=O)n2)c(-c2ccc(Cl)s2)n1` [Example 203] as the compound, how does the log p (pH 2.3) read?
**A.** Its log p is 3.15^[a].

**Q.** For `CC(n1ncc(-c2ccncn2)c1-c1ccc(Cl)s1)C(C)(C)C` (stereo not shown) [Example 33], which log p (pH 2.7) is on record?
**A.** The log p was 4.46^[b].

**Q.** Which “logP (pH2.7)” value (pH 2.7) does the source give for `CC#Cc1c(-c2ccncc2)c(-c2ccc(Cl)s2)nn1Cc1ccc(OC)cc1` [4-[(3/5)-(5-chloro-2-thienyl)-1-(4-methoxybenzyl)-5-(prop-1-yn-1-yl)-1H-pyrazol-4-yl]pyridine] here?
**A.** Its value is 3.11.

**Q.** And the “logP (pH2.7), minor isomer” value (pH 2.7)?
**A.** Its value is 2.61.

**Q.** What does the source list for `CC(C)n1cc(-c2ccncc2)c(-c2ccc(Br)s2)n1` [4-[1-Isopropyl-(3/5)-(5-bromo-2-thienyl)-1H-pyrazol-4-yl]pyridine]?
**A.** logP (pH2.7) (pH 2.7): 1.88; logP (pH2.7), minor isomer (pH 2.7): 1.76

**Q.** Which log p (pH 2.7) does the source give for `N#Cc1[nH]nc(-c2ccc(Cl)s2)c1-c1ccncc1` [Example 85] here?
**A.** The log p was 1.53^[b].

**Q.** Which log p (pH 2.7) does the source give for `CCC(C)n1cc(-c2ccnc(C(=O)NC(C)C)c2)c(-c2ccc(Cl)s2)n1` (stereo not shown) [Example 99] here?
**A.** The log p was 4.82^[b].
